Publication PMC3759295 (Toxicology letters, 2013)

Tested on: CYP1A1 mRNA in primary human hepatocytes
Assay: CYP1A1 mRNA expression in primary human hepatocytes
Type: cell-based
Conditions: 24 h; for CYP1A1 mRNA fold induction over the vehicle-treated cells, LH47: hepatocyte culture LH47, 50 µM; for CYP1A1 mRNA fold induction over the vehicle-treated cells, LH48: hepatocyte culture LH48 (so in the source), 50 µM

## COc1cc(-c2[o+]c3cc(O)cc(O)c3cc2O[C@@H]2O[C@H](CO)[C@H](O)[C@H](O)[C@H]2O)cc(OC)c1O.[Cl-] [MAL-3, malvidin-3-O-galactoside chloride]
Hepatocyte culture LH45, 10 µM
  CYP1A1 mRNA fold induction over the vehicle-treated cells, LH45: 0.12 ± 0.00 fold
Hepatocyte culture LH45, 50 µM
  CYP1A1 mRNA fold induction over the vehicle-treated cells, LH45: 0.28 ± 0.04 fold
Hepatocyte culture LH46, 10 µM
  CYP1A1 mRNA fold induction over the vehicle-treated cells, LH46: 0.87 ± 0.02 fold
Hepatocyte culture LH46, 50 µM
  CYP1A1 mRNA fold induction over the vehicle-treated cells, LH46: 1.32 ± 0.05 fold
  CYP1A1 mRNA fold induction over the vehicle-treated cells, LH47: 0.54 ± 0.02 fold
  CYP1A1 mRNA fold induction over the vehicle-treated cells, LH48: 0.33 ± 0.02 fold

## C[C@@H]1O[C@@H](Oc2cc3c(O)cc(O)cc3[o+]c2-c2cc(O)c(O)c(O)c2)[C@H](O)[C@H](O)[C@H]1O.[Cl-] [DEL-5, delphinidin-3-O-rhamnoside chloride]
Hepatocyte culture LH45, 10 µM
  CYP1A1 mRNA fold induction over the vehicle-treated cells, LH45: 0.48 ± 0.01 fold
Hepatocyte culture LH45, 50 µM
  CYP1A1 mRNA fold induction over the vehicle-treated cells, LH45: 0.40 ± 0.09 fold
Hepatocyte culture LH46, 10 µM
  CYP1A1 mRNA fold induction over the vehicle-treated cells, LH46: 0.98 ± 0.15 fold
Hepatocyte culture LH46, 50 µM
  CYP1A1 mRNA fold induction over the vehicle-treated cells, LH46: 1.19 ± 0.18 fold
  CYP1A1 mRNA fold induction over the vehicle-treated cells, LH47: 0.26 ± 0.01 fold
  CYP1A1 mRNA fold induction over the vehicle-treated cells, LH48: 0.01 ± 0.01 fold

## OC[C@H]1O[C@@H](Oc2cc3c(O)cc(O)cc3[o+]c2-c2cc(O)c(O)c(O)c2)[C@H](O[C@@H]2OC[C@@H](O)[C@H](O)[C@H]2O)[C@@H](O)[C@@H]1O.[Cl-] [DEL-4, delphinidin-3-O-sambubioside chloride]
Hepatocyte culture LH45, 10 µM
  CYP1A1 mRNA fold induction over the vehicle-treated cells, LH45: 0.26 ± 0.21 fold
Hepatocyte culture LH45, 50 µM
  CYP1A1 mRNA fold induction over the vehicle-treated cells, LH45: 0.34 ± 0.09 fold
Hepatocyte culture LH46, 10 µM
  CYP1A1 mRNA fold induction over the vehicle-treated cells, LH46: 1.11 ± 0.20 fold
Hepatocyte culture LH46, 50 µM
  CYP1A1 mRNA fold induction over the vehicle-treated cells, LH46: 1.31 ± 0.05 fold
  CYP1A1 mRNA fold induction over the vehicle-treated cells, LH47: 0.21 ± 0.26 fold
  CYP1A1 mRNA fold induction over the vehicle-treated cells, LH48: 0.07 ± 0.01 fold

## OCC1OC(Oc2cc3c(OC4OC(CO)C(O)C(O)C4O)cc(O)cc3[o+]c2-c2cc(O)c(O)c(O)c2)C(O)C(O)C1O.[Cl-] (stereo not drawn) [DEL-3, delphinidin-3,5-di-O-glucoside chloride]
Hepatocyte culture LH45, 10 µM
  CYP1A1 mRNA fold induction over the vehicle-treated cells, LH45: 0.82 ± 0.02 fold
Hepatocyte culture LH45, 50 µM
  CYP1A1 mRNA fold induction over the vehicle-treated cells, LH45: 1.70 ± 3.26 fold
Hepatocyte culture LH46, 10 µM
  CYP1A1 mRNA fold induction over the vehicle-treated cells, LH46: 0.85 ± 0.06 fold
Hepatocyte culture LH46, 50 µM
  CYP1A1 mRNA fold induction over the vehicle-treated cells, LH46: 1.14 ± 0.21 fold
  CYP1A1 mRNA fold induction over the vehicle-treated cells, LH47: 0.39 ± 0.06 fold
  CYP1A1 mRNA fold induction over the vehicle-treated cells, LH48: 0.02 ± 0.01 fold

## OC[C@H]1O[C@@H](Oc2cc3c(O)cc(O)cc3[o+]c2-c2cc(O)c(O)c(O)c2)[C@H](O)[C@@H](O)[C@@H]1O.[Cl-] [DEL-1, delphinidin-3-O-glucoside chloride]
Hepatocyte culture LH45, 10 µM
  CYP1A1 mRNA fold induction over the vehicle-treated cells, LH45: 1.80 ± 0.11 fold
Hepatocyte culture LH45, 50 µM
  CYP1A1 mRNA fold induction over the vehicle-treated cells, LH45: 1.50 ± 0.21 fold
Hepatocyte culture LH46, 10 µM
  CYP1A1 mRNA fold induction over the vehicle-treated cells, LH46: 1.99 ± 0.12 fold
Hepatocyte culture LH46, 50 µM
  CYP1A1 mRNA fold induction over the vehicle-treated cells, LH46: 0.80 ± 0.07 fold
  CYP1A1 mRNA fold induction over the vehicle-treated cells, LH47: 1.01 ± 0.12 fold
  CYP1A1 mRNA fold induction over the vehicle-treated cells, LH48: 0.01 ± 0.00 fold

## C[C@@H]1O[C@@H](OC[C@H]2O[C@@H](Oc3cc4c(O)cc(O)cc4[o+]c3-c3cc(O)c(O)c(O)c3)[C@H](O)[C@@H](O)[C@@H]2O)[C@H](O)[C@H](O)[C@H]1O.[Cl-] [DEL-2, delphinidin-3-O-rutinoside chloride]
Hepatocyte culture LH45, 10 µM
  CYP1A1 mRNA fold induction over the vehicle-treated cells, LH45: 1.53 ± 0.36 fold
Hepatocyte culture LH45, 50 µM
  CYP1A1 mRNA fold induction over the vehicle-treated cells, LH45: 0.53 ± 0.11 fold
Hepatocyte culture LH46, 10 µM
  CYP1A1 mRNA fold induction over the vehicle-treated cells, LH46: 1.34 ± 0.10 fold
Hepatocyte culture LH46, 50 µM
  CYP1A1 mRNA fold induction over the vehicle-treated cells, LH46: 0.68 ± 0.01 fold
  CYP1A1 mRNA fold induction over the vehicle-treated cells, LH47: 0.23 ± 0.05 fold
  CYP1A1 mRNA fold induction over the vehicle-treated cells, LH48: 0.02 ± 0.01 fold
